According to ChEMBL document CHEMBL1201862, “PubChem BioAssay data set” (2004):
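Briefly, cells in 96-well plates were exposed to five compound concentrations for 48 h, and endpoints were estimated by linear interpolation. GI50 is the concentration that inhibits growth by half.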 Active and inactive are the calls of the source. No stated cut-off is given here; in the data, active = GI50 up to about 1.1 µM and inactive = higher.

Columns and labels:
Assay in all cases: NCI tumour cell line growth inhibition, 48 h
[1] = test system: Malme-3M
[2] = test system: SK-MEL-5
[3] = test system: OVCAR-4
[4] = test system: 786-0
[5] = test system: RPMI-8226
[6] = test system: SF-539
[7] = test system: HCT-15
[8] = test system: TK-10
[9] = test system: BT-549
[10] = test system: PC-3
[11] = test system: MOLT-4
[12] = test system: HL-60
[13] = test system: HCT-116
[14] = test system: OVCAR-3
[15] = test system: SW-620
[16] = test system: SF-295
[17] = test system: M14
[18] = test system: HOP-92
[19] = test system: HCC 2998

SMILES	GI50 [1]	GI50 [2]	GI50 [3]	GI50 [4]	GI50 [5]	GI50 [6]	GI50 [7]	GI50 [8]	GI50 [9]	GI50 [10]	GI50 [11]	GI50 [12]	GI50 [13]	GI50 [14]	GI50 [15]	GI50 [16]	GI50 [17]	GI50 [18]	GI50 [19]
Nc1cc2nc(-c3ccccc3)cn2cn1	20.2 µM (inactive)	35.5 µM (inactive)	> 100 µM (inactive)	> 100 µM (inactive)	65 µM (inactive)	> 100 µM (inactive)	> 100 µM	50.5 µM (inactive)	> 100 µM (inactive)	50 µM (inactive)	> 100 µM (inactive)	> 100 µM (inactive)	> 100 µM (inactive)	> 100 µM (inactive)	> 100 µM (inactive)	> 100 µM (inactive)	> 100 µM (inactive)	–	–
CN(CCc1ccc(Br)cc1)CCN1CCCCC1	22.8 µM (inactive)	14.9 µM (inactive)	54.8 µM (inactive)	30.1 µM (inactive)	62.5 µM (inactive)	27.3 µM (inactive)	60.5 µM	71.3 µM (inactive)	24.8 µM (inactive)	27.2 µM (inactive)	31 µM (inactive)	–	17.7 µM (inactive)	36.6 µM (inactive)	33.5 µM (inactive)	25.1 µM (inactive)	22.8 µM (inactive)	17.7 µM (inactive)	33.7 µM (inactive)
CCOc1ccc(N/C(=C(/C(Cl)=C(/Cl)NC(C)(C)C)[N+](=O)[O-])n2nnc3ccccc32)cc1	15.8 µM (inactive)	–	25.6 µM (inactive)	18 µM (inactive)	23.9 µM (inactive)	24.1 µM (inactive)	20.4 µM	–	17.9 µM (inactive)	28.7 µM (inactive)	> 100 µM (inactive)	–	18.6 µM (inactive)	25.9 µM (inactive)	19.2 µM (inactive)	28.1 µM (inactive)	> 100 µM (inactive)	–	> 100 µM (inactive)
Cc1ccc2nc(CN(CCO)CCO)cc(=O)n2c1	> 100 µM (inactive)	–	> 100 µM (inactive)	> 100 µM (inactive)	–	> 100 µM (inactive)	> 100 µM	> 100 µM (inactive)	> 100 µM (inactive)	> 100 µM (inactive)	> 100 µM (inactive)	> 100 µM (inactive)	> 100 µM (inactive)	> 100 µM (inactive)	> 100 µM (inactive)	> 100 µM (inactive)	> 100 µM (inactive)	> 100 µM (inactive)	> 100 µM (inactive)
COc1ccc(/N=C2\C(=N/c3ccc(OC)cc3)N(S(=O)(=O)c3ccccc3)C(=S)N2c2ccccc2)cc1	> 100 µM (inactive)	> 100 µM (inactive)	–	> 100 µM (inactive)	> 100 µM (inactive)	> 100 µM (inactive)	> 100 µM	> 100 µM (inactive)	> 100 µM (inactive)	> 100 µM (inactive)	> 100 µM (inactive)	–	–	> 100 µM (inactive)	> 100 µM (inactive)	> 100 µM (inactive)	> 100 µM (inactive)	> 100 µM (inactive)	> 100 µM (inactive)
CCC(=O)/C(=C\I)c1ccccc1	1.67 µM (inactive)	–	–	1.78 µM (inactive)	3.33 µM (inactive)	18.1 µM (inactive)	1.8 µM	15 µM (inactive)	1.79 µM (inactive)	3.01 µM (inactive)	2.23 µM (inactive)	0.995 µM (active)	1.79 µM (inactive)	1.67 µM (inactive)	1.58 µM (inactive)	18.5 µM (inactive)	2.28 µM (inactive)	2.16 µM (inactive)	–
N#CSCc1cccc(Nc2cc(=O)[nH]c(=O)[nH]2)c1	31.8 µM (inactive)	26.9 µM (inactive)	31.3 µM (inactive)	> 100 µM (inactive)	47.9 µM (inactive)	33 µM (inactive)	56.6 µM	> 100 µM (inactive)	38 µM (inactive)	> 100 µM (inactive)	–	–	40.6 µM (inactive)	54.7 µM (inactive)	55.6 µM (inactive)	> 100 µM (inactive)	52 µM (inactive)	14.8 µM (inactive)	43.3 µM (inactive)
C=CCC1(OC(C)=O)C2OC(=O)C1(O)OCC2O (stereo not drawn)	> 100 µM (inactive)	> 100 µM (inactive)	> 100 µM (inactive)	> 100 µM (inactive)	> 100 µM (inactive)	> 100 µM (inactive)	> 100 µM	> 70.8 µM (inactive)	> 100 µM (inactive)	> 100 µM (inactive)	> 100 µM (inactive)	> 100 µM (inactive)	> 100 µM (inactive)	> 100 µM (inactive)	> 100 µM (inactive)	> 100 µM (inactive)	> 100 µM (inactive)	–	> 100 µM (inactive)
COc1cc(-c2nc(SC)nc3c2CCc2ccccc2-3)cc(OC)c1OC	–	37 µM (inactive)	65 µM (inactive)	50.6 µM (inactive)	25.8 µM (inactive)	83.4 µM (inactive)	–	–	> 100 µM (inactive)	34.5 µM (inactive)	30.5 µM (inactive)	> 100 µM (inactive)	47.8 µM (inactive)	95.1 µM (inactive)	> 100 µM (inactive)	91 µM (inactive)	> 100 µM (inactive)	> 100 µM (inactive)	> 100 µM (inactive)
CC(C)(O)[C@@H]1CC[C@](C)(C2[C@@H](O)C[C@@]3(C)C4C[C@H](OC5OCC(O)C(O)C5O)[C@H]5C(C)(C)[C@@H](OC6OCC(O)C(O)C6OC6OCC(O)C(O)C6O)CC[C@@]56C[C@@]46CC[C@]23C)O1 (stereo partly drawn)	–	> 100 µM (inactive)	> 100 µM (inactive)	> 100 µM (inactive)	> 100 µM (inactive)	> 100 µM (inactive)	> 100 µM	–	> 100 µM (inactive)	> 100 µM (inactive)	> 100 µM (inactive)	> 100 µM (inactive)	> 100 µM (inactive)	> 100 µM (inactive)	> 100 µM (inactive)	> 100 µM (inactive)	> 100 µM (inactive)	–	> 100 µM (inactive)
COC(=O)[C@](NC(=O)OCc1ccccc1)([C@@H](C)Sc1ccc(C)cc1)C(F)(F)F	55.7 µM (inactive)	18.3 µM (inactive)	32.3 µM (inactive)	59.7 µM (inactive)	29.2 µM (inactive)	69.3 µM (inactive)	27.5 µM	–	34.9 µM (inactive)	43 µM (inactive)	21 µM (inactive)	17.4 µM (inactive)	35.4 µM (inactive)	> 100 µM (inactive)	27.2 µM (inactive)	61.1 µM (inactive)	68.2 µM (inactive)	–	> 100 µM (inactive)
N#Cc1nn(C(N)=O)c(N)c1C#N	–	> 100 µM (inactive)	> 100 µM (inactive)	> 100 µM (inactive)	–	> 100 µM (inactive)	> 100 µM	> 100 µM (inactive)	> 100 µM (inactive)	> 100 µM (inactive)	> 100 µM (inactive)	> 100 µM (inactive)	> 100 µM (inactive)	> 100 µM (inactive)	> 100 µM (inactive)	> 100 µM (inactive)	> 100 µM (inactive)	–	> 100 µM (inactive)
CC(C)C(Br)CCC1=CCC(Br)(Br)C1 (stereo not drawn)	14.6 µM (inactive)	5.45 µM (inactive)	9.1 µM (inactive)	15.7 µM (inactive)	–	19.2 µM (inactive)	–	17.5 µM (inactive)	20.2 µM (inactive)	14.9 µM (inactive)	3.48 µM (inactive)	3.4 µM (inactive)	14.6 µM (inactive)	13 µM (inactive)	3.52 µM (inactive)	17 µM (inactive)	3.81 µM (inactive)	5.2 µM (inactive)	14.9 µM (inactive)
CN(C)c1ccccc1CN1CCCN(Cc2ccccc2N(C)C)C1c1ccncc1	10.4 µM (inactive)	5.36 µM (inactive)	15 µM (inactive)	13.1 µM (inactive)	5.75 µM (inactive)	16.4 µM (inactive)	22.2 µM	14.4 µM (inactive)	16.9 µM (inactive)	17.9 µM (inactive)	18.1 µM (inactive)	13 µM (inactive)	11.2 µM (inactive)	14.6 µM (inactive)	16.3 µM (inactive)	15.3 µM (inactive)	2.33 µM (inactive)	3.47 µM (inactive)	–
CC(=O)Nc1ncc(Sc2ccccc2C(=O)O)s1	–	> 100 µM (inactive)	–	> 100 µM (inactive)	> 100 µM (inactive)	> 100 µM (inactive)	> 100 µM	> 100 µM (inactive)	> 100 µM (inactive)	> 100 µM (inactive)	> 100 µM (inactive)	> 100 µM (inactive)	> 100 µM (inactive)	> 100 µM (inactive)	> 100 µM (inactive)	> 100 µM (inactive)	> 100 µM (inactive)	> 100 µM (inactive)	–
NC(=O)OCc1c(-c2ccccc2)nn(-c2ccccc2)c1COC(N)=O	> 100 µM (inactive)	> 100 µM (inactive)	> 100 µM (inactive)	> 100 µM (inactive)	> 100 µM (inactive)	> 100 µM (inactive)	> 100 µM	> 100 µM (inactive)	> 100 µM (inactive)	> 100 µM (inactive)	–	–	> 100 µM (inactive)	> 100 µM (inactive)	> 100 µM (inactive)	> 100 µM (inactive)	> 100 µM (inactive)	> 100 µM (inactive)	> 100 µM (inactive)
COc1ccc(OC2OC(CO)C(OCc3ccccc3)C(OCc3ccccc3)C2OCc2ccccc2)cc1 (stereo not drawn)	39.1 µM (inactive)	54.8 µM (inactive)	–	39.5 µM (inactive)	> 100 µM (inactive)	63.2 µM (inactive)	–	> 100 µM (inactive)	> 100 µM (inactive)	1.48 µM (inactive)	2.02 µM (inactive)	88.9 µM (inactive)	14.8 µM (inactive)	> 100 µM (inactive)	> 100 µM (inactive)	76.7 µM (inactive)	> 100 µM (inactive)	–	> 100 µM (inactive)
